{
  "source": "patent US20230055121A1",
  "about": "“AQUEOUS SUSPENSION COMPOSITION CONTAINING SIROLIMUS OR SALT THEREOF” (SANTEN PHARMACEUTICAL CO., LTD., priority 2019, published 2023)",
  "origin": "cited, not measured here",
  "data": [
    {"substance": "Sirolimus", "values": [
      {"measurement": "Solubility in water", "result": "almost insoluble in water"}
    ]}
  ]
}
